# Data as given in PubChem BioAssay (NCI).
#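 Step 1: Grow cells in 96-well plates. Step 2: Expose to compound for 48 hours at 5 concentrations. Step 3: Interpolate endpoints linearly; if unreached, use highest concentration. TGI is the concentration that stops growth completely.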
# Assays:
# Assay in all cases: NCI-60 cell line screen, 48 h
# RPMI-8226 leukemia = system: RPMI-8226 leukemia
# SK-MEL-2 melanoma = system: SK-MEL-2 melanoma
# 786-0 renal = system: 786-0 renal
# EKVX NSCLC = system: EKVX NSCLC
# UO-31 renal = system: UO-31 renal
# CCRF-CEM leukemia = system: CCRF-CEM leukemia
# PC-3 prostate = system: PC-3 prostate
# K-562 leukemia = system: K-562 leukemia
# HS 578T breast = system: HS 578T breast
# SNB-19 CNS = system: SNB-19 CNS
# A498 renal = system: A498 renal
# HCC-2998 colon = system: HCC-2998 colon
# M14 melanoma = system: M14 melanoma
# SNB-75 CNS = system: SNB-75 CNS
# UACC-62 melanoma = system: UACC-62 melanoma
# RXF 393 renal = system: RXF 393 renal
# OVCAR-4 ovarian = system: OVCAR-4 ovarian
# MDA-MB-435 = system: MDA-MB-435
# NCI/ADR-RES ovarian = system: NCI/ADR-RES ovarian
# HCT-116 colon = system: HCT-116 colon
# U251 CNS = system: U251 CNS
# OVCAR-8 ovarian = system: OVCAR-8 ovarian
# DU-145 prostate = system: DU-145 prostate
# HL-60(TB) leukemia = system: HL-60(TB) leukemia
# COLO 205 colon = system: COLO 205 colon
# NCI-H460 lung = system: NCI-H460 lung
# SK-MEL-5 melanoma = system: SK-MEL-5 melanoma
# HOP-62 NSCLC = system: HOP-62 NSCLC
# SW-620 colon = system: SW-620 colon
# MDA-MB-231 breast = system: MDA-MB-231 breast
# NCI-H23 lung = system: NCI-H23 lung
# MALME-3M melanoma = system: MALME-3M melanoma
# SN12C renal = system: SN12C renal
# SK-OV-3 ovarian = system: SK-OV-3 ovarian
# KM12 colon = system: KM12 colon
# SF-268 CNS = system: SF-268 CNS
# BT-549 breast = system: BT-549 breast
# UACC-257 melanoma = system: UACC-257 melanoma
# ACHN renal = system: ACHN renal
# NCI-H522 lung = system: NCI-H522 lung
# OVCAR-5 ovarian = system: OVCAR-5 ovarian
# HCT-15 colon = system: HCT-15 colon
# IGROV1 ovarian = system: IGROV1 ovarian
# MCF7 breast = system: MCF7 breast
# CAKI-1 renal = system: CAKI-1 renal
# T-47D breast = system: T-47D breast
# A549 NSCLC = system: A549 NSCLC
# HOP-92 NSCLC = system: HOP-92 NSCLC
# HT29 colon = system: HT29 colon
# SK-MEL-28 melanoma = system: SK-MEL-28 melanoma
# SF-539 CNS = system: SF-539 CNS
# MOLT-4 leukemia = system: MOLT-4 leukemia
# SR leukemia = system: SR leukemia
# MDA-N = system: MDA-N
# NCI-H226 lung = system: NCI-H226 lung
# SF-295 CNS = system: SF-295 CNS
# OVCAR-3 ovarian = system: OVCAR-3 ovarian
# TK-10 renal = system: TK-10 renal
# LOX IMVI melanoma = system: LOX IMVI melanoma
compound,measurement,setting,value
COC12COC(=O)C1C(c1ccc3c(c1)OCO3)c1cc3c(cc1O2)OCO3 (configuration not stated),TGI,RPMI-8226 leukemia,> 87.9 µM
same,TGI,SK-MEL-2 melanoma,> 83.8 µM
same,TGI,786-0 renal,> 96.8 µM
same,TGI,EKVX NSCLC,> 97.4 µM
same,TGI,UO-31 renal,> 91.5 µM
same,TGI,CCRF-CEM leukemia,> 84.2 µM
same,TGI,PC-3 prostate,> 100 µM
same,TGI,K-562 leukemia,40.2 µM
same,TGI,HS 578T breast,> 77.3 µM
same,TGI,SNB-19 CNS,> 100 µM
same,TGI,A498 renal,> 91.8 µM
same,TGI,HCC-2998 colon,53.1 µM
same,TGI,M14 melanoma,> 100 µM
same,TGI,SNB-75 CNS,59.2 µM
same,TGI,UACC-62 melanoma,> 100 µM
same,TGI,RXF 393 renal,44.8 µM
same,TGI,OVCAR-4 ovarian,> 100 µM
same,TGI,MDA-MB-435,9.13 µM
same,TGI,NCI/ADR-RES ovarian,> 74.1 µM
same,TGI,HCT-116 colon,> 100 µM
same,TGI,U251 CNS,> 100 µM
same,TGI,OVCAR-8 ovarian,> 100 µM
same,TGI,DU-145 prostate,> 93.5 µM
same,TGI,HL-60(TB) leukemia,> 52.3 µM
same,TGI,COLO 205 colon,> 93.8 µM
same,TGI,NCI-H460 lung,> 100 µM
same,TGI,SK-MEL-5 melanoma,> 100 µM
same,TGI,HOP-62 NSCLC,97.6 µM
same,TGI,SW-620 colon,> 100 µM
same,TGI,MDA-MB-231 breast,> 100 µM
same,TGI,NCI-H23 lung,> 100 µM
same,TGI,MALME-3M melanoma,> 100 µM
same,TGI,SN12C renal,> 100 µM
same,TGI,SK-OV-3 ovarian,> 75.8 µM
same,TGI,KM12 colon,> 100 µM
same,TGI,SF-268 CNS,> 100 µM
same,TGI,BT-549 breast,> 100 µM
same,TGI,UACC-257 melanoma,> 96.4 µM
same,TGI,ACHN renal,> 100 µM
same,TGI,NCI-H522 lung,39.7 µM
same,TGI,OVCAR-5 ovarian,> 100 µM
same,TGI,HCT-15 colon,> 100 µM
same,TGI,IGROV1 ovarian,> 100 µM
same,TGI,MCF7 breast,> 100 µM
same,TGI,CAKI-1 renal,> 100 µM
same,TGI,T-47D breast,> 100 µM
same,TGI,A549 NSCLC,> 100 µM
same,TGI,HOP-92 NSCLC,> 100 µM
same,TGI,HT29 colon,> 91 µM
same,TGI,SK-MEL-28 melanoma,> 100 µM
same,TGI,SF-539 CNS,43.8 µM
same,TGI,MOLT-4 leukemia,> 87.9 µM
same,TGI,SR leukemia,> 100 µM
same,TGI,MDA-N,11.7 µM
same,TGI,NCI-H226 lung,> 100 µM
same,TGI,SF-295 CNS,> 100 µM
same,TGI,OVCAR-3 ovarian,> 100 µM
same,TGI,TK-10 renal,> 100 µM
same,TGI,LOX IMVI melanoma,> 100 µM
C=C1CCC(O)C/C1=C/C=C1\CCCC2(C)C1CCC2C(C)CCCC(C)C (configuration not stated),TGI,RPMI-8226 leukemia,64.9 µM
same,TGI,SK-MEL-2 melanoma,37.2 µM
same,TGI,786-0 renal,30.6 µM
same,TGI,EKVX NSCLC,35.4 µM
same,TGI,UO-31 renal,28.3 µM
same,TGI,CCRF-CEM leukemia,> 65.4 µM
same,TGI,PC-3 prostate,34.3 µM
same,TGI,K-562 leukemia,> 59.2 µM
same,TGI,HS 578T breast,36.4 µM
same,TGI,SNB-19 CNS,33.2 µM
same,TGI,A498 renal,36.7 µM
same,TGI,HCC-2998 colon,38.6 µM
same,TGI,M14 melanoma,34.8 µM
same,TGI,SNB-75 CNS,37.6 µM
same,TGI,UACC-62 melanoma,34.9 µM
same,TGI,RXF 393 renal,33.4 µM
same,TGI,OVCAR-4 ovarian,35.7 µM
same,TGI,MDA-MB-435,31.3 µM
same,TGI,NCI/ADR-RES ovarian,34.9 µM
same,TGI,HCT-116 colon,28.5 µM
same,TGI,U251 CNS,34.4 µM
same,TGI,OVCAR-8 ovarian,33.2 µM
same,TGI,DU-145 prostate,41.3 µM
same,TGI,HL-60(TB) leukemia,> 60.2 µM
same,TGI,COLO 205 colon,34 µM
same,TGI,NCI-H460 lung,46.7 µM
same,TGI,SK-MEL-5 melanoma,36.3 µM
same,TGI,HOP-62 NSCLC,35.4 µM
same,TGI,SW-620 colon,31.8 µM
same,TGI,MDA-MB-231 breast,35.6 µM
same,TGI,NCI-H23 lung,33.7 µM
same,TGI,MALME-3M melanoma,38 µM
same,TGI,SN12C renal,30.8 µM
same,TGI,SK-OV-3 ovarian,41.9 µM
same,TGI,KM12 colon,38 µM
same,TGI,SF-268 CNS,46.5 µM
same,TGI,BT-549 breast,37.4 µM
same,TGI,UACC-257 melanoma,32.2 µM
same,TGI,ACHN renal,30.6 µM
same,TGI,NCI-H522 lung,33 µM
same,TGI,OVCAR-5 ovarian,37.4 µM
same,TGI,HCT-15 colon,35.3 µM
same,TGI,IGROV1 ovarian,31.3 µM
same,TGI,MCF7 breast,29.3 µM
same,TGI,CAKI-1 renal,35.2 µM
same,TGI,T-47D breast,38.8 µM
same,TGI,A549 NSCLC,36.3 µM
same,TGI,HOP-92 NSCLC,33 µM
same,TGI,HT29 colon,29.9 µM
same,TGI,SK-MEL-28 melanoma,30.4 µM
same,TGI,SF-539 CNS,36.5 µM
same,TGI,MOLT-4 leukemia,> 61.5 µM
same,TGI,SR leukemia,> 63.6 µM
same,TGI,MDA-N,34.3 µM
same,TGI,NCI-H226 lung,31.3 µM
same,TGI,SF-295 CNS,35.1 µM
same,TGI,OVCAR-3 ovarian,35.4 µM
same,TGI,TK-10 renal,25.1 µM
same,TGI,LOX IMVI melanoma,34.5 µM
NC(C(=O)O)c1cc(=O)[nH]o1 (configuration not stated),TGI,RPMI-8226 leukemia,> 100 µM
same,TGI,SK-MEL-2 melanoma,> 100 µM
same,TGI,786-0 renal,> 100 µM
same,TGI,EKVX NSCLC,> 100 µM
same,TGI,UO-31 renal,> 100 µM
same,TGI,CCRF-CEM leukemia,> 100 µM
same,TGI,PC-3 prostate,> 100 µM
same,TGI,K-562 leukemia,> 100 µM
same,TGI,HS 578T breast,> 100 µM
same,TGI,SNB-19 CNS,> 100 µM
same,TGI,A498 renal,> 100 µM
same,TGI,HCC-2998 colon,> 100 µM
same,TGI,M14 melanoma,> 100 µM
same,TGI,SNB-75 CNS,> 100 µM
same,TGI,UACC-62 melanoma,> 100 µM
same,TGI,RXF 393 renal,> 100 µM
same,TGI,OVCAR-4 ovarian,> 100 µM
same,TGI,MDA-MB-435,> 100 µM
same,TGI,NCI/ADR-RES ovarian,> 100 µM
same,TGI,HCT-116 colon,> 100 µM
same,TGI,U251 CNS,> 100 µM
same,TGI,OVCAR-8 ovarian,> 100 µM
same,TGI,DU-145 prostate,> 100 µM
same,TGI,HL-60(TB) leukemia,> 100 µM
same,TGI,COLO 205 colon,> 100 µM
same,TGI,NCI-H460 lung,> 100 µM
same,TGI,SK-MEL-5 melanoma,> 100 µM
same,TGI,HOP-62 NSCLC,> 100 µM
same,TGI,SW-620 colon,> 100 µM
same,TGI,MDA-MB-231 breast,> 100 µM
same,TGI,NCI-H23 lung,> 100 µM
same,TGI,MALME-3M melanoma,> 100 µM
same,TGI,SN12C renal,> 100 µM
same,TGI,SK-OV-3 ovarian,> 100 µM
same,TGI,KM12 colon,> 100 µM
same,TGI,SF-268 CNS,> 100 µM
same,TGI,BT-549 breast,> 69.9 µM
same,TGI,UACC-257 melanoma,> 100 µM
same,TGI,ACHN renal,> 100 µM
same,TGI,NCI-H522 lung,> 100 µM
same,TGI,OVCAR-5 ovarian,> 100 µM
same,TGI,HCT-15 colon,> 100 µM
same,TGI,IGROV1 ovarian,> 100 µM
same,TGI,MCF7 breast,> 100 µM
same,TGI,CAKI-1 renal,> 100 µM
same,TGI,T-47D breast,> 100 µM
same,TGI,A549 NSCLC,> 100 µM
same,TGI,HOP-92 NSCLC,> 100 µM
same,TGI,HT29 colon,> 100 µM
same,TGI,SK-MEL-28 melanoma,> 100 µM
same,TGI,SF-539 CNS,> 100 µM
same,TGI,MOLT-4 leukemia,> 100 µM
same,TGI,SR leukemia,> 100 µM
same,TGI,MDA-N,> 100 µM
same,TGI,NCI-H226 lung,> 100 µM
same,TGI,SF-295 CNS,> 100 µM
same,TGI,OVCAR-3 ovarian,> 100 µM
same,TGI,TK-10 renal,> 100 µM
same,TGI,LOX IMVI melanoma,> 100 µM
